Columns and labels:
normal mice = assay: Morris water maze memory test; type: in vivo, mouse
Experimental: This test was carried out in normal mice using a Morris water maze.

CCI mice = assay: Chronic constriction injury (CCI) model, mechanical allodynia (von Frey); type: in vivo, mouse
Experimental: Mice were anesthetized with pentobarbital (45 mg/kg, i.p.). An incision was made just below the hipbone, parallel to the sciatic nerve. The right common sciatic nerve was exposed at the level proximal to the sciatic trifurcation, and a nerve segment 3-5 mm long was separated from surrounding connective tissue. Two loose ligatures with 6-0 silk suture were made around the nerve with a 1.0-1.5 mm interval between them. Muscles were closed with suture thread and the wound with wound clips. […] Any suture that remained after two weeks was removed from the healed surgical wound. Mechanical allodynia (von Frey test) was measured before and after drug injections.
The antiallodynic effects of test compounds were assessed in three experiments consisting of CCI mice and sham control mice. […] The anti-allodynic effects of alpha-7 nAChRs PAMs and ago-PAMs were tested (four doses and vehicle control, N=10 mice/group, administered i.p.) in the CCI model. Mice were assessed for mechanical allodynia 2 weeks after the CCI surgery. All these studies will be conducted in blinded manner. CCI and sham control mice received two conditioning sessions per day (vehicle in the morning and drug in the afternoon) over the course of 3 days, and were tested for a place preference on day 7 without any injections.
Pain behavioral data are presented as mean±S.E.M. (see FIGS. 5A and 5B). Statistical analysis was performed using the t-test or two-way analysis of variance test, followed by the post-hoc Bonferroni's test. All differences were considered significant at p<0.05, and significant differences are shown with asterisks in FIGS. 5A and 5B. ED50 values with 95% confidence limits (CL) were calculated by unweighted least-squares linear regression.

formalin-injected mice = assay: Formalin test (intraplantar formalin, paw licking, paw edema); type: in vivo, mouse
Experimental: A formalin test was carried out in an open plexiglas cage, with a mirror placed at a 45° angle behind the cage to allow an unobstructed view of the paws. Mice were allowed to acclimate for 15 min in the test cage prior to injection. Each animal was injected intraplantar with 20 μl of 2.5% formalin to the right hindpaw. Each mouse was then immediately placed in the test cage. Up to two mice at one time were observed during 0 to 5 min after injection (phase 1) and during 20-45 min post injection (phase 2). The period between the two phases of nociceptive responding is generally considered to be a phase of weak activity. The amount of time spent licking the injected paw was recorded with a digital stopwatch.
Further, the antinociceptive activity of drugs in phase II of the formalin test and their anti-allodynic response in the CCI model was tested. Mice received vehicle or methyllycaconatine (MLA, 10 mg/kg) prior to vehicle or an ED84 dose of the ago-PAM/PAM (determined from a dose-response experiment using the formalin intraplantar injection model). […] The MLA results were confirmed by testing the ED84 dose of the test compounds in the alpha-7 KO and wild type mice. Finally, it was tested whether tolerance develops to the antinociceptive effects of alpha-7 nAChR ago-PAM following 7 days of repeated injections of its ED84 dose. Mice were given the following treatments: vehicle (7 days of vehicle administration); acute alpha-7 nAChR test compounds (6 days of vehicle administration followed by alpha-7 nAChR ago-PAM on the last day); and repeated alpha-7 nAChR test compounds (7 days of alpha-7 nAChR PAM or ago-PAM).

human alpha-7 nAChR = biological target: T1, human alpha-7 nAChR (Homo sapiens, UniProt P36544); assay: Two-electrode voltage clamp of alpha-7 nAChR expressed in Xenopus oocytes (net charge); type: cell-based
T1 construct: expressed in transfected cells; host or cells: Xenopus laevis oocytes (cRNA injection)
How it was run: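 Human α7 nAChR co-expressed with RIC-3 in Xenopus oocytes; two-electrode clamp at −60 mV, 12 s applications in Ringer's pH 7.3. Net charge integrated over 120 s from application, normalized to prior ACh controls; measured for compound alone and with choline or ACh; n≥4 oocytes.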

T1 sequence (P36544 23-502): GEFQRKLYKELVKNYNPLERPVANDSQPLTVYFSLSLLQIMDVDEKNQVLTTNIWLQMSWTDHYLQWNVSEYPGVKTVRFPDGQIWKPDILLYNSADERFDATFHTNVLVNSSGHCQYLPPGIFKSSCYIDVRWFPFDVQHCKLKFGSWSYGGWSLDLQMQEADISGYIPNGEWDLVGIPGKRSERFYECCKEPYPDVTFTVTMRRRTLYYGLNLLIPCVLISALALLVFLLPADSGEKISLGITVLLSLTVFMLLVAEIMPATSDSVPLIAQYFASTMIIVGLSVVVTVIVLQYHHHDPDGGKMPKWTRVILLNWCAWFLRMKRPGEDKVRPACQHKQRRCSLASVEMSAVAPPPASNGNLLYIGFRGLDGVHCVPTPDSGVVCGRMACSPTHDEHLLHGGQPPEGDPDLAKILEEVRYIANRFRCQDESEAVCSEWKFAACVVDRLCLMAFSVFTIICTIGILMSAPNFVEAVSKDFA

NS(=O)(=O)c1ccc2c(c1)[C@H]1C=CC[C@H]1[C@@H](c1ccc(Br)cc1)N2 [Compound 1, (3aR,4S,9bS)-4-(4-bromophenyl)-3a,4,5,9b-tetrahydro-3H-cyclopenta[c]quinoline-8-sulfonamide]
memory defects in scopolamine-treated mice (normal mice; FIG. 6): dose dependently reversed the memory defects
latency to find the platform, compound given alone (normal mice; normal mice): reduced the latency for the mice to find the platform
anti-allodynic effect in CCI mice (CCI mice; i.p., FIG. 5A): significant anti-allodynic effect
effect on sham mice (CCI mice; sham control mice): no effect on sham mice
activity in alpha-7 nAChR knockout mice (formalin-injected mice; FIG. 3D): inactive
effect of GAT107 after MLA (formalin-injected mice; MLA 10 mg/kg prior, FIG. 3C): reversed the effects of GAT107
nociceptive behavior of formalin phase II (formalin-injected mice; given i.v., FIG. 3A): dose-dependently and significantly block the nociceptive behavior of formalin phase II
nociceptive behavior of formalin phase II (formalin-injected mice; given orally, FIG. 3B): dose-dependently and significantly block the nociceptive behavior of formalin phase II
paw edema induced by formalin intraplantar injection (formalin-injected mice; mouse, in vivo): reduced the paw edema
Charge Alone (human alpha-7 nAChR; compound alone acting as an allosteric agonist, area under the curve of current vs. time): 450
Charge +C (human alpha-7 nAChR; compound together with choline or ACh, includes PAM and ago-PAM activity, area under the curve of current vs. time): 1700
activity of separated enantiomer vs racemate 4BP-TQS (human alpha-7 nAChR; enantioseparation and electrophysiological characterization): all the activity of the racemate of 4BP-TQS lies in one enantiomer

Source: patent publication US11299496B2, “Ligands for alpha-7 nicotinic acetylcholine receptors and methods of treating neurological and inflammatory conditions” (Northeastern University, priority 2014, dated 2022)
